Assay results taken from patent US20250280821A1, “PERFUSION AND METABOLIC RESTORATION OF ORGANS” (Bexorg, Inc., priority 2024, published 2025).

Test system: tissue of the dorsomedial prefrontal cortex (dmPFC) of the brain 110
Test: Raman spectroscopy of brain tissue during ex-vivo perfusion with rapamycin in the perfusate
Format: in vitro ADME, human
Details: ex-vivo perfused brain
Text: As previously discussed, the perfusion system 100 also includes a Raman spectroscopy probe 172 that is coupled to or positioned near the brain housing 102 for performing Raman spectroscopy on the tissue of the brain 110 in real-time during perfusion of the brain 110. Once the brain 110 is fluidly coupled to the organ line 144 and is positioned inside the brain housing 102, the Raman spectroscopy probe 172 is positioned on the surface of the brain 110 and can be operated periodically throughout the perfusion process to perform Raman spectroscopy on the tissue of the brain 110 in real-time as the brain is perfused. […]
The data generated by the Raman spectroscopy probe 172 can be used to determine whether the pharmaceutical compound is capable of crossing the blood-brain barrier. The pharmaceutical compound can be determined as capable of crossing the blood-brain barrier in response to detecting that one or more chemical compounds corresponding to the pharmaceutical compound are present in the tissue of the brain 110 using the Raman spectroscopy probe 172. In addition, the percentage of the pharmaceutical compound taken up and metabolized by the brain 110 can be determined based on the concentration of one or more chemical compounds corresponding to the pharmaceutical compound that is detected in the tissue of the brain 110 by the Raman spectroscopy probe 172. […]

CO[C@H]1C[C@@H]2CC[C@@H](C)[C@@](O)(O2)C(=O)C(=O)N2CCCC[C@H]2C(=O)O[C@H]([C@H](C)C[C@@H]2CC[C@@H](O)[C@H](OC)C2)CC(=O)[C@H](C)/C=C(\C)[C@@H](O)[C@@H](OC)C(=O)[C@H](C)C[C@H](C)/C=C/C=C/C=C/1C [rapamycin]
concentration of rapamycin present in the brain (Raman spectroscopy of dmPFC tissue over time (FIG. 6)): continually increased until a stable concentration 604 was reached | ability to cross the blood-brain barrier of the brain (rapamycin added to perfusate by syringe pump, Raman spectroscopy of dmPFC tissue (FIG. 6)): able to cross the blood-brain barrier
